Measured values: patent US20200268716A1, “LULICONAZOLE AS ANTI-ACANTHAMOEBA AGENT AND METHOD FOR PRODUCING THE SAME” (Pola Pharma Inc., priority 2015, published 2020)
≈ marks a conversion by molar mass, not a printed value.

What was measured:
[1] = tested on: Acanthamoeba polyphaga (A. polyphaga); test: Growth inhibition of Acanthamoeba polyphaga by solid luliconazole crystals (1 mg added to culture); type: cell-based; settings: 1 mg of solid crystals added after 48 hours preculture; 25° C., 72 hours
Protocol: The anti-Acanthamoeba activities of the crystals in Examples 2 to 6 were examined based on the method in Example 1. In other words, Acanthamoeba polyphaga (A. polyphaga) of which the number of the amoebae was 50,000 with respect to 4.5 mL of ATCC712 medium was dispersed and seeded in 500 μL of medium, and was preliminarily cultured at 25° C. for 48 hours. To the resultant, 1 mg of each of the crystals in Examples 2 to 6 was added to prepare a control and samples. The culture was further continued at 25° C. for 72 hours, and the number of the amoebae in the culture liquid was measured by a Neubauer counting chamber. The control, to which nothing was added, and in which the amoebae were cultured, was used. Growth inhibition rates were calculated from the counted values according to an expression of [(the number of amoebae in control−the number of amoebae in each sample)/the number of amoebae in control]×100.

[2] = tested on: Acanthamoeba polyphaga (A. polyphaga; clinical isolate); test: Growth inhibition of Acanthamoeba polyphaga by luliconazole in solution (methanol specimen), amoebae counted in a Neubauer counting chamber; type: cell-based; settings: 25° C., 72 hours
Protocol: Acanthamoeba polyphaga (A. polyphaga; clinical isolate) was cultured in an ATCC712 medium (hereinafter simply referred to as medium) at 25° C. for 1 week, and the medium was adjusted by adding a medium so that the number of the amoebae was 100,000 amoebae/mL, to make a preculture liquid. A control and samples were prepared by adding 4.3 mL of medium, 200 μL of specimen, and 500 μL of preculture liquid. The amoebae were cultured at 25° C. for 72 hours, and the number of the amoebae was counted by a Neubauer counting chamber.
Luliconazole used in the specimen was obtained as described below. A compound was synthesized according to a method described in Japanese Patent Laid-Open No. 60-218387, an ethyl acetate/normal hexane mixture (5:1) was added, and the resultant was warmed at 60° C. and dissolved under stirring. Crystals were precipitated while stirring the resultant in cooling water at 5° C., were filtered, and dried by sending air at 40° C. for 48 hours to obtain the crystals.
The specimen was prepared using methanol as a solvent so that the final concentration of luliconazole was 0, 5, 10, 20, or 40 μg/mL. The specimen in which the final concentration of luliconazole was 0 μg/mL was used as the control.
Growth inhibition rates were determined based on [(the number of amoebae in control−the number of amoebae in each sample)/the number of amoebae in control]×100. MIC and IC50 were calculated based on the growth inhibition rates by a usual method. MIC was 40 μg/mL, and IC50 was 20 μg/mL.

[3] = calculated from growth inhibition rates

In the case of `N#C/C(=C1/SC[C@@H](c2ccc(Cl)cc2Cl)S1)n1ccnc1` [Crystal in Example 4, luliconazole], the “Growth Inhibition Rate (%)” value [1] is reported as 69.6%.
With `N#C/C(=C1/SC[C@@H](c2ccc(Cl)cc2Cl)S1)n1ccnc1` [Crystal in Example 5, luliconazole] the “Growth Inhibition Rate (%)” value [1] was 77.0%.
For `N#C/C(=C1/SC[C@@H](c2ccc(Cl)cc2Cl)S1)n1ccnc1` [Crystal in Example 2, luliconazole], the “Growth Inhibition Rate (%)” value [1] was 66.7%.
With `N#C/C(=C1/SC[C@@H](c2ccc(Cl)cc2Cl)S1)n1ccnc1` [Crystal in Example 3, luliconazole] the “Growth Inhibition Rate (%)” value [1] was 25.9%.
`N#C/C(=C1/SC[C@@H](c2ccc(Cl)cc2Cl)S1)n1ccnc1` [luliconazole] was tested, and the IC50 [2, 3] was 20 µg/mL (≈ 56.5 µM), the MIC [2, 3] was 40 µg/mL (≈ 113 µM) and the inhibition at 5 µg/mL ([2]; luliconazole final concentration 5 μg/mL, ATCC712 medium, read-out: Inhibition Rate (%)) was 20%. It also gave an inhibition at 10 µg/mL ([2]; luliconazole final concentration 10 μg/mL, ATCC712 medium, read-out: Inhibition Rate (%)) of 40%, an inhibition at 20 µg/mL ([2]; luliconazole final concentration 20 μg/mL, ATCC712 medium, read-out: Inhibition Rate (%)) of 50% and an inhibition at 40 µg/mL ([2]; luliconazole final concentration 40 μg/mL, ATCC712 medium, read-out: Inhibition Rate (%)) of 95%.
`N#C/C(=C1/SC[C@@H](c2ccc(Cl)cc2Cl)S1)n1ccnc1` [Crystal in Example 6, luliconazole] was tested, and the “Growth Inhibition Rate (%)” value [1] was 54.8%.
